The record followed here is PubChem BioAssay (NCI).

Assay in all cases: DTP human tumour cell line panel, 48 h
Test [1] concerns SK-MEL-28 melanoma.
For test [2], the system named is NCI-H23 lung.
The test system of test [3] is HOP-92 NSCLC.
In test [4] the test system is COLO 205 colon.
The test system of test [5] is MDA-N.
Test [6] deals with SF-295 CNS.
The subject of test [7] is HT29 colon.
For test [8], the system named is CAKI-1 renal.
In test [9] the test system is LOX IMVI melanoma.
In test [10] the test system is SK-MEL-2 melanoma.
The test system of test [11] is UACC-62 melanoma.
For test [12], the system named is PC-3 prostate.
Test [13] deals with NCI-H226 lung.
The subject of test [14] is UO-31 renal.
Test [15] deals with NCI/ADR-RES ovarian.
The test system of test [16] is SF-268 CNS.
The subject of test [17] is T-47D breast.

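How tested: cells in 96-well plates exposed to compound for 48 hours at five concentrations. Definition used: TGI = concentration required for complete inhibition of growth.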 Bounds are passed on as bounds.

For `Cc1ccc2c(n1)C(=O)c1ccccc1C2=O`, the concentration for total growth inhibition (TGI) in [1] is over 100 µM; in test [2], 38.1 µM; in test [3] it was over 100 µM; in test [4] it was 37 µM; in [5], over 59.9 µM; in [6] it was over 83.3 µM. The total growth inhibition concentration (TGI) was over 87.9 µM in test [7]; over 89.2 µM in test [8]; 53.1 µM in test [9]; over 89 µM in [10]; 43.6 µM in test [11]; 68.8 µM in test [12]. For the same compound, the concentration for total growth inhibition (TGI) in [13] is over 100 µM; in [14] it was over 92.7 µM; in [15], 60.1 µM; in test [16] it was over 100 µM; in [17] it was over 85 µM.
In the case of `CSC1=C(c2ccc(Cl)cc2)SC(N2CCCCC2)N1c1ccc([N+](=O)[O-])cc1` (stereo not given), the TGI in test [1] is over 100 µM; in test [2] it was 85.2 µM; in [3], 72.3 µM; in [4] it was 81.3 µM; in test [5] it was over 100 µM; in test [6] it was 61.2 µM. In addition, the TGI in [7] was over 100 µM; in [8], over 100 µM; in test [9], over 100 µM; in [10], 54.3 µM; in [11] it was over 100 µM; in [12] it was 63.4 µM. Also, the TGI in [13] was over 100 µM; in [14] it was over 100 µM; in [15], 62.3 µM; in [16], over 100 µM; in test [17], 70.1 µM.
Regarding `COCCOCCOC1=C(Cl)C(=O)c2c(O)ccc(O)c2C1=O`, the TGI in [1] amounted to 5.12 µM; in [2] it was 6.03 µM; in test [3], 3.95 µM; in test [4] it was 2.45 µM; in test [5], 9.63 µM; in test [6], 27.1 µM. In addition, the total growth inhibition concentration (TGI) stood at 8.73 µM in test [7]; 3.17 µM in test [8]; 4.59 µM in test [9]; 4.86 µM in test [10]; 7.85 µM in test [11]; 17.5 µM in test [12]. Moreover, the TGI in [13] turned out to be 35.4 µM; in [14], 4.83 µM; in [15], 9.14 µM; in [16], 7.26 µM; in test [17], 6.64 µM.
Take `COC(=O)c1c(C)cccc1CC1Cc2c(C)cccc2C1=O` (stereo not given): the TGI is over 100 µM in test [1]; 99.5 µM in test [2]; 70.9 µM in test [3]; 48.3 µM in [4]; over 100 µM in [5]; over 100 µM in test [6]. Besides, the concentration for total growth inhibition (TGI) is over 100 µM in test [7]; over 100 µM in [8]; 33.6 µM in [9]; 37.9 µM in test [10]; 89.9 µM in [11]; over 100 µM in [12]. Besides, the TGI in test [13] is 95.8 µM; in [14], 71 µM; in [15] it was 64.2 µM; in test [16], over 100 µM; in test [17] it was over 100 µM.
Take `O=C(N/N=C\c1ccc2ccccc2c1)Nc1ccc([N+](=O)[O-])cc1`: the total growth inhibition concentration (TGI) was over 84.8 µM in test [1]; over 72.3 µM in test [2]; 38.5 µM in [3]; over 60 µM in test [4]; over 70.6 µM in test [5]; over 68.9 µM in [6]. Moreover, the total growth inhibition concentration (TGI) is over 75.6 µM in test [7]; over 100 µM in [8]; over 100 µM in [9]; over 73.5 µM in test [10]; over 74.8 µM in test [11]; over 73 µM in test [12]. Also, the TGI was over 100 µM in test [13]; over 59.3 µM in test [14]; over 70.1 µM in test [15]; over 89.9 µM in test [16]; over 59 µM in test [17].
Turning to `C(=C\C(SCc1ccccc1)SCc1ccccc1)/c1ccccc1`, the TGI in [1], in test [2], in [3], in test [4], in [5] and in [6] was over 10 µM each time. Also, the total growth inhibition concentration (TGI) in test [7], in test [8], in test [9], in test [10], in [11] and in test [12] was over 10 µM throughout. Also, the TGI in test [13], in test [14], in test [15], in test [16] and in [17] was over 10 µM each time.
As for `CNC(=S)N/N=C/c1cccc(C)n1`, the total growth inhibition concentration (TGI) in test [1] is over 100 µM; in test [2], over 81.2 µM; in [3] it was over 100 µM; in test [4], over 85.2 µM; in test [5], over 100 µM; in test [6] it was over 100 µM. The TGI is over 100 µM in test [7]; over 100 µM in [8]; over 73.8 µM in [9]; over 100 µM in test [10]; 56.4 µM in [11]; over 100 µM in test [12]. In addition, the TGI in test [13] is over 83.9 µM; in [14] it was over 100 µM; in test [15], 63.3 µM; in test [16] it was over 76 µM; in [17], over 92.4 µM.
For `CN(C)c1ccc(/C=C/C=C(/C#N)c2ccccc2)cc1`, the TGI in test [1] was over 100 µM; in test [2], 97.6 µM; in test [3] it was over 100 µM; in [4], over 92.1 µM; in test [5] it was 5.28 µM; in [6] it was over 100 µM. Moreover, the TGI is 40.6 µM in test [7]; over 100 µM in test [8]; over 74.3 µM in test [9]; over 93 µM in [10]; over 100 µM in test [11]; over 100 µM in test [12]. Besides, the TGI was over 100 µM in test [13]; over 100 µM in test [14]; 35.3 µM in test [15]; over 100 µM in test [16]; over 100 µM in test [17].
In the case of `COC(=O)/N=[N+](\[O-])C(c1ccc(OC)cc1)C1CCCCC1` (stereo not given), the TGI is 38.7 µM in test [1]; 22.6 µM in [2]; 36.8 µM in [3]; 3.36 µM in [4]; 12 µM in test [5]; 16.4 µM in [6]. For the same compound, the TGI in test [7] is 5.62 µM; in [8], 10.3 µM; in test [9] it was over 100 µM; in test [10], 31.8 µM; in test [11] it was 25 µM; in test [12] it was 22.5 µM. The total growth inhibition concentration (TGI) is 26.9 µM in test [13]; 21.5 µM in test [14]; 15.8 µM in test [15]; 37.9 µM in [16]; 40.3 µM in test [17].
As to `Cc1cccc(NC(=S)N=Nc2c(O)[nH]c3ccccc23)c1`, the TGI in [1], in test [2], in [3], in test [4], in test [5] and in test [6] was over 100 µM in each case. Besides, the total growth inhibition concentration (TGI) in test [7], in [8], in test [9], in test [10], in test [11] and in [12] was over 100 µM each time. Also, the TGI is over 100 µM in test [13]; over 100 µM in test [14]; 85.9 µM in test [15]; 58.7 µM in test [16]; over 100 µM in test [17].

By TGI is commonly meant the concentration giving total growth inhibition.
